Laboratory results: patent publication EP0450065A1, “ANTIVIRAL AGENT” (priority 1988, dated 1990)
Like-named read-outs stand apart in the source and are kept apart here.

How the values were obtained:
[1] = test system: herpes simplex virus type 1 (HF strain); assay: Control of CPE (cytopathic effect) manifestation in vero cells; type: cell-based; parameters: key to Cytopathic effect [CPE] (3days) Average / Cytopathic effect [CPE] (5days) Average / Cytopathic effect [CPE] (6days) Average: CPE score: 0 none, 0.5 minute spots, 1 = 25%, 2 = 50%, 3 = ≥75% cells; key to Cytopathic effect [CPE] (3days) △CPE / Cytopathic effect [CPE] (5days) △CPE / Cytopathic effect [CPE] (3days) ΔCPE / Cytopathic effect [CPE] (6days) ΔCPE: ΔCPE = difference of average CPE score (0–3 scale) from control; conditions: for Cytopathic effect [CPE] (3days) ΔCPE / Cytopathic effect [CPE] (6days) ΔCPE / Cytopathic effect [CPE] (3days) △CPE / Cytopathic effect [CPE] (5days) △CPE: difference from control
Procedure: In vitro antiviral activity of Compound A against herpes simplex virus type 1 (HF strain) Compound A was tested for antiviral effect by the following two methods.
Vero cells cultured and grown in a monolayer on microplates to test for cytopathic effect due to viral infection, with solutions of Compound A diluted to varying ratios and solutions of virus diluted to varying ratios added severally thereto in a volume of 0.1 ml, were cultured under the conditions of 5% CO₂ and 37°C and were examined for CPE manifestation under a microscope. The observation was continued for five to six days.
The degree of CPE brought about by viral infection was rated on the five-point scale, wherein 3 stands for CPE observed on not less than 75% of cultured cells, 2 for CPE observed on 50% of cultured cells, 1 for CPE observed on 25% of cultured cells, 0.5 for occurrence of one to two extremely minute DPE spots, and 0 for perfect absence of recognizable CPE. The CPE scores obtained at the four holes in each microplate were averaged and the difference of the average from the average obtained in the control (omitting the treatment with a chemical) was reported as ΔCPE.
In vitro antiviral effect of Compound A against herpes simplex virus type 1 (HF strain) The test was carried out by following the procedure of Example 3.

thymidine kinase [TK(v)] = thymidine kinase [TK(v)] (Human herpesvirus 1, UniProt P0DTH5); conditions: viral versus cellular thymidine kinase; cited from earlier work
vero cells [2] = conditions: african green monkey
Procedure: Compound A and Compound B were severally dissolved in distilled water in a concentration of 5 mg/ml, to prepare master solutions. Each of the master solutions was suitably diluted with an Eagle's MEM culture medium containing 10% fetal bovine serum. A 0.2-ml portion of the resultant dilution product was placed on vero cells cultured in advance on a microplate and grown in a monolayer, cultured further thereon at 37°C for three to five days. Samples taken severally after three days'and five days'culture were placed under a microscope and tested for cytopathogenic effect brought about by a chemical agent.

vero cells [3] = conditions: control ratio on propagation of vero cells, 72hr
Procedure: Samples of the control group contained 0.1 ml of a culture solution (an Eagle's MEM culture medium containing 10% fetal bovine serum).
The test was conducted by using three culture tubes per group, culturing the cells in the tubes at 37°C for three days, and taking count of live cells by the dye-exclusion method.

[4] = 100 μg/ml, HSV-1 (HF strain), Example 5
[5] = 100 μg/ml, HSV-1 (HF), Example 3
[6] = 10 μg/ml, HSV-1 (HF), Example 3
[7] = 20 μg/ml, HSV-1 (HF), Example 3
[8] = 50 μg/ml, HSV-1 (HF), Example 3
[9] = 200 μg/ml, HSV-1 (HF strain), Example 5

Sequence of thymidine kinase [TK(v)] (P0DTH5 whole entry): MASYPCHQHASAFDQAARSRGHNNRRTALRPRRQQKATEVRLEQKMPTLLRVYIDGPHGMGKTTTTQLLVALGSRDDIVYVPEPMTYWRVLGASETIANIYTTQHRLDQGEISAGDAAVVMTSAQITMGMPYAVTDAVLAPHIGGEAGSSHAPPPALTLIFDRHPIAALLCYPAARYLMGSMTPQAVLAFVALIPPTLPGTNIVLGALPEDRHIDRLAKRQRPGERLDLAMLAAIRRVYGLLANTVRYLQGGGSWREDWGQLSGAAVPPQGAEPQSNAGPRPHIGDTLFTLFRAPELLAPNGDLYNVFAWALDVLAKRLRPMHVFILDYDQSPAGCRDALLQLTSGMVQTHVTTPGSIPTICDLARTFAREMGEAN

Nc1nc2c(ncn2COCCO)c(=O)[nH]1 [ACV, acyclovir, reference compound]
Cytopathic effect [CPE] (3days) Average [1, 4]: 0.875 | Cytopathic effect [CPE] (6days) Average [1, 4]: 1.0 | Cytopathic effect [CPE] (3days) ΔCPE [1, 4]: 1.875 | Cytopathic effect [CPE] (6days) ΔCPE [1, 4]: 2.0 | Cytopathic effect [CPE] (3days) Average [1, 5]: 0 | Cytopathic effect [CPE] (5days) Average [1, 5]: 0 | Cytopathic effect [CPE] (3days) △CPE [1, 5]: 1.5 | Cytopathic effect [CPE] (5days) △CPE [1, 5]: 1.75 | affinity for TK(v) as for TK(c) (thymidine kinase [TK(v)]): more than 200 times

K₅BW₁₂O₄₀.15H₂O [Compound A]
Cytopathic effect [CPE] (3days) Average ([1]; 5 μg/ml, HSV-1 (HF), Example 3): 1.25 | Cytopathic effect [CPE] (5days) Average ([1]; 5 μg/ml, HSV-1 (HF), Example 3): 1.75 | Cytopathic effect [CPE] (3days) △CPE ([1]; 5 μg/ml, HSV-1 (HF), Example 3): 0.25 | Cytopathic effect [CPE] (5days) △CPE ([1]; 5 μg/ml, HSV-1 (HF), Example 3): 0 | Cytopathic effect [CPE] (3days) Average [1, 6]: 1.25 | Cytopathic effect [CPE] (5days) Average [1, 6]: 1.25 | Cytopathic effect [CPE] (3days) △CPE [1, 6]: 0.25 | Cytopathic effect [CPE] (5days) △CPE [1, 6]: 0.5 | Cytopathic effect [CPE] (3days) Average [1, 7]: 1.25 | Cytopathic effect [CPE] (5days) Average [1, 7]: 1.5 | Cytopathic effect [CPE] (3days) △CPE [1, 7]: 0.25 | Cytopathic effect [CPE] (5days) △CPE [1, 7]: 0.25 | Cytopathic effect [CPE] (3days) Average [1, 8]: 1.5 | Cytopathic effect [CPE] (5days) Average [1, 8]: 2.0 | Cytopathic effect [CPE] (3days) △CPE [1, 8]: 0 | Cytopathic effect [CPE] (5days) △CPE [1, 8]: 0.25 | Cytopathic effect [CPE] (3days) Average [1, 4]: 0.125 | Cytopathic effect [CPE] (6days) Average [1, 4]: 0.5 | Cytopathic effect [CPE] (3days) ΔCPE [1, 4]: 2.625 | Cytopathic effect [CPE] (6days) ΔCPE [1, 4]: 2.5 | Cytopathic effect [CPE] (3days) Average [1, 5]: 0.75 | Cytopathic effect [CPE] (5days) Average [1, 5]: 1.0 | Cytopathic effect [CPE] (3days) △CPE [1, 5]: 0.375 | Cytopathic effect [CPE] (5days) △CPE [1, 5]: 0.75 | Cytopathic effect [CPE] (3days) Average [1, 9]: 0 | Cytopathic effect [CPE] (6days) Average [1, 9]: 0 | Cytopathic effect [CPE] (3days) ΔCPE [1, 9]: 2.75 | Cytopathic effect [CPE] (6days) ΔCPE [1, 9]: 3.0 | maximum nontoxic doses (MNTD) (vero cells [2]): > 200 µg/mL | Cellular toxity (3 days) Maximum nontoxic does (vero cells [2]; 72 h): >200 µg/mL | Cellular toxity (5 days) Maximum nontoxic does (vero cells [2]; 120 h): >200 µg/mL | Ratio (%) (vero cells [3]; 100 μg/ml): absolutely no effect | Ratio (%) (vero cells [3]; 200 μg/ml): absolutely no effect
